# Results: PubChem BioAssay (NCI)
#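 48-hour exposure; five concentrations; linearly interpolated endpoints. GI50 = concentration required for 50% inhibition of growth. TGI is the concentration that stops growth completely.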
# Columns and labels:
# Assay in all cases: NCI tumour cell line growth inhibition, 48 h
# [1] = tested on: NCI-H460 lung
# [2] = tested on: SW-620 colon
# [3] = tested on: K-562 leukemia
# [4] = tested on: LOX IMVI melanoma
# [5] = tested on: A549 NSCLC
# [6] = tested on: HT29 colon
# [7] = tested on: UO-31 renal
# [8] = tested on: A498 renal
# [9] = tested on: HL-60(TB) leukemia
# [10] = tested on: HS 578T breast
# [11] = tested on: ACHN renal
# [12] = tested on: TK-10 renal
# [13] = tested on: HCT-116 colon
# [14] = tested on: COLO 205 colon
# [15] = tested on: SF-295 CNS
# [16] = tested on: SN12C renal
# [17] = tested on: PC-3 prostate
# [18] = tested on: U251 CNS
# [19] = tested on: SF-539 CNS
# [20] = tested on: CCRF-CEM leukemia
# [21] = tested on: SK-MEL-2 melanoma
# [22] = tested on: RPMI-8226 leukemia
# [23] = tested on: SK-MEL-28 melanoma
# [24] = tested on: HOP-92 NSCLC
# [25] = tested on: MCF7 breast
# [26] = tested on: SF-268 CNS
# [27] = tested on: MALME-3M melanoma
# [28] = tested on: UACC-62 melanoma
# [29] = tested on: T-47D breast
# [30] = tested on: SNB-75 CNS
# [31] = tested on: SR leukemia
# [32] = tested on: OVCAR-4 ovarian
# [33] = tested on: BT-549 breast
# [34] = tested on: CAKI-1 renal
# [35] = tested on: MDA-MB-231 breast
# [36] = tested on: EKVX NSCLC
# [37] = tested on: DU-145 prostate
# [38] = tested on: HCT-15 colon
# [39] = tested on: NCI/ADR-RES ovarian
# [40] = tested on: UACC-257 melanoma
# [41] = tested on: NCI-H23 lung
# [42] = tested on: SK-MEL-5 melanoma
# [43] = tested on: NCI-H522 lung
# [44] = tested on: IGROV1 ovarian
# [45] = tested on: MOLT-4 leukemia
# [46] = tested on: KM12 colon
# [47] = tested on: MDA-MB-435
# [48] = tested on: SNB-19 CNS
# [49] = tested on: OVCAR-5 ovarian
# [50] = tested on: OVCAR-3 ovarian
# [51] = tested on: SK-OV-3 ovarian
# [52] = tested on: HOP-62 NSCLC
# [53] = tested on: NCI-H226 lung
# [54] = tested on: 786-0 renal
# [55] = tested on: HCC-2998 colon
# [56] = tested on: RXF 393 renal
# [57] = tested on: M14 melanoma
compound,measurement,setting,value
COC1=C(OC)C(=O)C(CCCCCCCCCC[P+](c2ccccc2)(c2ccccc2)c2ccccc2)=C(C)C1=O,GI50,[1],266 nM
same,TGI,[1],1160 nM
same,GI50,[2],334 nM
same,TGI,[2],4910 nM
same,GI50,[3],244 nM
same,GI50,[4],299 nM
same,TGI,[4],1550 nM
same,GI50,[5],337 nM
same,TGI,[5],5140 nM
same,GI50,[6],194 nM
same,TGI,[6],1050 nM
same,GI50,[7],1670 nM
same,TGI,[7],3430 nM
same,GI50,[8],371 nM
same,TGI,[8],1790 nM
same,GI50,[9],59.8 nM
same,TGI,[9],409 nM
same,GI50,[10],204 nM
same,TGI,[10],1620 nM
same,GI50,[11],1070 nM
same,TGI,[11],3720 nM
same,GI50,[12],303 nM
same,TGI,[12],1380 nM
same,GI50,[13],135 nM
same,TGI,[13],329 nM
same,GI50,[14],99.9 nM
same,TGI,[14],279 nM
same,GI50,[15],189 nM
same,TGI,[15],585 nM
same,GI50,[16],213 nM
same,TGI,[16],1320 nM
same,GI50,[17],130 nM
same,TGI,[17],4040 nM
same,GI50,[18],104 nM
same,TGI,[18],1170 nM
same,GI50,[19],256 nM
same,TGI,[19],1280 nM
same,GI50,[20],107 nM
same,TGI,[20],1180 nM
same,GI50,[21],744 nM
same,TGI,[21],3510 nM
same,GI50,[22],24.7 nM
same,TGI,[22],143 nM
same,GI50,[23],475 nM
same,TGI,[23],2170 nM
same,GI50,[24],97.7 nM
same,TGI,[24],504 nM
same,GI50,[25],42 nM
same,TGI,[25],532 nM
same,GI50,[26],345 nM
same,TGI,[26],1440 nM
same,GI50,[27],206 nM
same,TGI,[27],908 nM
same,GI50,[28],312 nM
same,TGI,[28],1730 nM
same,GI50,[29],48.1 nM
same,TGI,[29],1040 nM
same,GI50,[30],211 nM
same,TGI,[30],925 nM
same,GI50,[31],> 100000 nM
same,TGI,[31],> 100000 nM
same,GI50,[32],166 nM
same,TGI,[32],2860 nM
same,GI50,[33],249 nM
same,TGI,[33],1090 nM
same,GI50,[34],853 nM
same,TGI,[34],3270 nM
same,GI50,[35],265 nM
same,TGI,[35],1480 nM
same,GI50,[36],137 nM
same,TGI,[36],4740 nM
same,GI50,[37],351 nM
same,TGI,[37],1730 nM
same,GI50,[38],1330 nM
same,TGI,[38],3460 nM
same,GI50,[39],3130 nM
same,TGI,[39],20300 nM
same,GI50,[40],150 nM
same,TGI,[40],931 nM
same,GI50,[41],160 nM
same,TGI,[41],930 nM
same,GI50,[42],71.3 nM
same,TGI,[42],222 nM
same,GI50,[43],170 nM
same,TGI,[43],795 nM
same,GI50,[44],187 nM
same,TGI,[44],1870 nM
same,GI50,[45],376 nM
same,TGI,[45],7780 nM
same,GI50,[46],145 nM
same,TGI,[46],884 nM
same,GI50,[47],193 nM
same,TGI,[47],1280 nM
same,GI50,[48],125 nM
same,TGI,[48],1300 nM
same,GI50,[49],361 nM
same,TGI,[49],1410 nM
same,GI50,[50],219 nM
same,TGI,[50],1100 nM
same,GI50,[51],255 nM
same,TGI,[51],869 nM
same,GI50,[52],194 nM
same,TGI,[52],491 nM
same,GI50,[53],284 nM
same,TGI,[53],915 nM
same,GI50,[54],269 nM
same,TGI,[54],530 nM
same,GI50,[55],247 nM
same,TGI,[55],1380 nM
same,GI50,[56],293 nM
same,TGI,[56],10700 nM
same,GI50,[57],366 nM
same,TGI,[57],1700 nM
